Consider seven molecules from patent EP0586525B1, “CARBOXAMIDO-(1,2N)-CARBOCYCLIC-2-AMINOTETRALIN DERIVATIVES” (priority 1991, dated 1992).

Data set [1] addresses T1, 5-hydroxytryptamine (5-HT1A) receptor (Bos taurus, UniProt F6Q2H9).
T1 construct: from tissue; host or cells: bovine brain homogenate
T1 sequence (F6Q2H9 1-422): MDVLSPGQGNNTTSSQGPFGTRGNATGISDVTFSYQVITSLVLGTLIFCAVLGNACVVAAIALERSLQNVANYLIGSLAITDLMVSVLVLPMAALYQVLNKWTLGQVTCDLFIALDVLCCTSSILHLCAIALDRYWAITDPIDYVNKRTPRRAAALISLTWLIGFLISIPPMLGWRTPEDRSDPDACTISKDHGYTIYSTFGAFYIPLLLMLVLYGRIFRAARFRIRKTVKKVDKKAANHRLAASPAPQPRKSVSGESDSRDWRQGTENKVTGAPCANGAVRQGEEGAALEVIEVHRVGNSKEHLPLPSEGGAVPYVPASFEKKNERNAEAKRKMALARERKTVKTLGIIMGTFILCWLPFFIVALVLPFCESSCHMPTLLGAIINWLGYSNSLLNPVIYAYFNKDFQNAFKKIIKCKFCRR
Description: Inhibition of 8-OH-DPAT binding in a bovine brain homogenate. The following applies: read-out: Binding at the 5-HT1A receptor site, IC50. The source says: Binding: Inhibition of 8-OH-DPAT binding in a bovine brain homogenate. Potency is given as nM dose required to inhibit 50% of DPAT binding (IC50). This test measures ability to bind to 5-hydroxytryptamine (5-HT1A) receptor.

The nature of the next data set: Mouse hypothermia. It is filed as in vivo. Particulars: dose depressing temperature by 2°C or more in two of four mice. The protocol: Hypothermia: Starting with a dose of 30 mg/kg, four mice are injected subcutaneously with test compound. Twenty minutes later, the number of animals whose body temperature has decreased by 2°C. or more are counted. If all four animals reach criteria, the drug is considered "active", and subsequent readings are taken at 60 and 120 minutes after drug. The time for last statistically significant drug affect on mean body temperature is indicated in minutes. […] Active compounds are retested using oral administration. Potency is given as mg/kg ED50 (dose required to depress temperature in two of four mice) as measured by Spearman-Karber statistics.

Data set [2] has as its system spontaneous sympathetic activity. Kind of data set: Sympathetic nerve discharge (SND) in chloralose anesthetized cats. It is filed as in vivo. Particulars: Felis catus, iv, dose range 0.001-1.0 mg/kg, read-out: Sympathetic nerve discharge, ED50 dose which inhibits spontaneous sympathetic activity. On the procedure: Sympathetic Nerve Discharge (SND): The i.v. mg/kg dose causing a 50% depression in SND in chloralose anesthetized cats and the maximum inhibition of sympathetic activity observed in the dose range tested (0.001-1.0 mg/kg i.v.).

Data set [3] can be described thus: Blood pressure at the SND ED50 dose (BP SND/MAX). It is filed as in vivo. The following applies: at the dose which inhibited sympathetic activity by 50%, i.v., chloralose anesthetized cats. On the procedure: BP SND/MAX: The blood pressure of the chloralose anesthetized cats in percent control at the dose causing 50% depression in SND and the maximum reduction in blood pressure as percent of the control blood pressure in the same animals observed in the dose range tested (0.001-1.0 mg/kg i.v.).

Data set [4] has as its system dorsal raphe 5-HT cell firing. Description: 5-HT cell firing in chloral hydrate anesthetized rats. It is filed as in vivo. The following applies: Rattus norvegicus, iv, read-out: Depression of 5-HT cell firing, ED50. An excerpt:
5-HT Cell Firing: The i.v. mg/kg dose causing a 50% depression in the firing of dorsal raphe 5-HT cell firing in chloral hydrate anesthetized rats.

Another data set deals with rat hepatocytes. Kind of data set: In vitro rat hepatocyte intrinsic clearance. The following applies: for In vitro hepatocyte assay clearance: 2, 5 and 15 µg/ml, 60 minute incubation at 37°C, rat hepatocytes 5.0 million cells/ml; for relative metabolic stability (rel. stab.): relative to cis-(±)2,3,3a,4,5,9b-hexahydro-9-carboxamido-3-(n-propyl)-1H-benz[e]indole, rat hepatocytes. It is filed as in vitro ADME. The protocol:
Aliquots of each incubate were withdrawn at preset times during the incubation and analyzed for parent compound using HPLC methodology. Intrinsic clearance is expressed as ml/min/5 million cells and metabolic stability relative to cis-(+)2,3,3a,4,5,9b-hexahydro-9-carboxamide-3-(n-propyl)-1H-benz[e]indole is determined.

Data set [5] in a line: Pharmacokinetics following constant infusion (steady state clearance). The following applies: plasma, iv; after 12 hour infusion (300 µg/hour), anesthetized rat; read-out: In vivo steady state clearance. On the procedure: Pharmacokinetics Following Constant Infusion: Clearance rate (ml/min/kg) was determined following a 12 hour infusion (300 µg/hour) of compound in the anesthetized rat. Disappearance of parent compound from plasma was measured at multiple time points following cessation of the infusion using HPLC methodology.

Data set [6] is described as follows: Oral plasma bioavailability. It is filed as in vivo. The following applies: rat, 6 mg/kg, conscious rats. The protocol:
Oral Bioavailability: Comparison of the disappearance of compound from plasma following oral (6 mg/kg) and intravenous (2 mg/kg) administration in conscious rats. Parent compound in plasma was measured at multiple time points following administration using HPLC methodology. Bioavailability is expressed as a percentage of the drug in plasma following oral administration compared to that following intravenous administration.

For data set [7] the following is noted: rat, in vivo; cited from earlier work.
Setting [8] is: sc, subcutaneous (s.c.) administration.

The IC50 is the concentration that gives 50% inhibition. In general, ED50 refers to the dose at which the effect has come halfway, by size or by number of responders. For orientation: clearance means a measure of how efficiently the substance is removed, as volume per time. For orientation: bioavailability means dose-corrected exposure relative to a reference, in per cent. Low values mean little systemic uptake, high ones much systemic uptake.

Regarding `CCCN1CCCC2c3c(cccc3C(N)=O)CCC21` (single isomer, unassigned) [Compound 5, trans-(-)1,2,3,4,4a,5,6,10b-octahydro-10-carboxamido-4-(n-propyl)-benzo[f]quinoline], the IC50 in [1] stood at 1.5 nM. For the same molecule, the figures for the ED50 (in the data set “Mouse hypothermia” (setting [8]); in [2]; in data set [4]) were 1.73 mg/kg, 0.15 mg/kg and above 100 µg/kg, respectively. In addition, the “Percent of control arterial blood pressure” value (shortened to “Percent”) in data set [3] came out at 85%. Besides, the “In vitro hepatocyte assay clearance” value in the data set with rat hepatocytes is given as “.012 ml/min/5 million cells”. For the same molecule, the “relative metabolic stability (rel. stab.)” value (shortened to “relative metabolic stability”) in the data set on rat hepatocytes came out at 3.59. Moreover, the clearance in data set [5] is 43 mL/min/kg. The bioavailability in data set [6] (study not given, oral 6 mg/kg vs i.v. 2 mg/kg) was determined as 86%.
With `CCCN1CCCC2c3c(cccc3C(N)=O)CCC21` (racemic) [Compound 4, trans-(±)1,2,3,4,4a,5,6,10b-octahydro-10-carboxamido-4-(n-propyl)-benzo[f]quinoline], the IC50 in data set [1] came out at 3.7 nM. Besides, the values for the ED50 in “Mouse hypothermia” (oral (p.o.) administration) and in “Mouse hypothermia” (setting [8]) were 4.1 mg/kg and 0.23 mg/kg, respectively.
As for `CCCN(CCC)C1CCc2cccc(O)c2C1` (centres unmarked) [8-OH DPAT], in data set [7], the plasma oral bioavailability is listed as below 5%.
With `CCCN1CC[C@H]2c3c(cccc3C(N)=O)CC[C@H]21` (single isomer, unassigned) [Compound 2, cis-(-)2,3,3a,4,5,9b-hexahydro-9-carboxamido-3-(n-propyl)-1H-benz[e]indole], the IC50 in data set [1] was 10.2 nM. Further, the ED50 was 0.019 mg/kg in [2] and 6 µg/kg in data set [4]. Also, the “Percent” value in [3] worked out at 84%.
As to `CCCN1CCC2c3c(cccc3C(N)=O)CCC21` (single isomer, unassigned) [Compound 3, cis-(+)2,3,3a,4,5,9b-hexahydro-9-carboxamido-3-(n-propyl)-1H-benz[e]indole], the 50% inhibitory concentration (IC50) in [1] is 533 nM. Further, the results for the ED50 in [2] and in data set [4] were above 1 mg/kg and above 300 µg/kg, respectively.
As to `CCCN1CCC[C@H]2c3c(cccc3C(N)=O)CC[C@@H]21` (single isomer, unassigned) [Compound 6, trans-(+)1,2,3,4,4a,5,6,10b-octahydro-10-carboxamido-4-(n-propyl)-benzo[f]quinoline], the “relative metabolic stability” value in the data set with rat hepatocytes worked out at 1.05.
As to `CCCN1CC[C@H]2c3c(cccc3C(N)=O)CC[C@H]21` (racemic) [Compound 1, cis-(±)2,3,3a,4,5,9b-hexahydro-9-carboxamido-3-(n-propyl)-1H-benz[e]indole], the IC50 in data set [1] was 5.2 nM. Further, the ED50 turned out to be 7.3 mg/kg in “Mouse hypothermia” (oral (p.o.) administration), 0.97 mg/kg in the data set “Mouse hypothermia” (setting [8]), 0.037 mg/kg in data set [2] and 2 µg/kg in data set [4]. In addition, the “Percent” value in data set [3] was 82%. The “In vitro hepatocyte assay clearance” value in the data set on rat hepatocytes is on record as “.013 ml/min/5 million cells”. In the data set with rat hepatocytes, the “relative metabolic stability” value was found to be 1.0. Moreover, in data set [5], the clearance stood at 58 mL/min/kg. Besides, the bioavailability in data set [6] (Study 1, oral 6 mg/kg vs i.v. 2 mg/kg) is 59%; in data set [6] (Study 2, samples taken for 24 hours after administration, oral 6 mg/kg vs i.v. 2 mg/kg), 70%.
